The text below walks through data of ChEMBL document CHEMBL1201862, “PubChem BioAssay data set” (2004).

Common to all, as to assay: growth of human tumour cells (NCI), 48 h
The test system of assay [1] is MDA-MB-435.
In assay [2] the test system is M14.
Assay [3] deals with DMS-273.
Assay [4] concerns SW-620.
Assay [5] relates to EKVX.
Assay [6] concerns M19-MEL.
For assay [7], the system named is Malme-3M.
Assay [8] deals with KM-20L2.
In assay [9] the test system is SK-MEL-2.
The test system of assay [10] is Hs-578T.
The subject of assay [11] is SNB-78.
In assay [12] the test system is SN12C.
For assay [13], the system named is SK-OV-3.
The test system of assay [14] is SNB-19.
Assay [15] relates to NCI-H226.
The subject of assay [16] is A549.
Assay [17] relates to T47D.
In assay [18] the test system is OVCAR-8.
Assay [19] concerns KM12.
For assay [20], the system named is DU-145.

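48-hour exposure; five concentrations; linearly interpolated endpoints. The concentration for 50% growth inhibition is given as GI50.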 Calls of active or inactive are those of the source. Rule as the data show it: active = GI50 up to about 1.1 µM and inactive = higher. Where only a bound is given, the exact number is not on record here.

In the case of `Nc1ccc(Cn2ccc3c4c(N)nc(N)nc4ccc32)cc1`, the GI50 in assay [1] was < 0.01 µM (active); in assay [2], < 0.0114 µM (active); in assay [3] it was < 0.01 µM (active); in [4], < 0.01 µM (active); in assay [5], 6.47 µM (inactive); in assay [6], 0.0834 µM (active). Moreover, the GI50 was 0.137 µM (active) in [7]; < 0.01 µM (active) in assay [8]; 1.17 µM (inactive) in assay [9]; 2.28 µM (inactive) in [10]; 7.35 µM (inactive) in assay [11]; < 0.0207 µM (active) in assay [12]. Besides, the GI50 was 12.3 µM (inactive) in assay [13]; 0.3 µM (active) in assay [14]; 4.27 µM (inactive) in [15]; < 0.01 µM (active) in assay [16]; 0.818 µM (active) in assay [17]; < 0.0127 µM (active) in [18]. Besides, the GI50 is 0.0321 µM (active) in assay [19] and 0.0123 µM (active) in [20].

As for `O=CN/C=C/c1ccccc1O`, the GI50 in assay [2], in assay [3], in assay [4], in assay [5], in assay [6] and in assay [7] was > 100 µM (inactive) in each case. The GI50 in assay [8], in assay [9], in assay [11], in assay [12], in assay [13] and in assay [14] was > 100 µM (inactive) in each case. The GI50 in assay [15], in [16], in assay [18], in assay [19] and in assay [20] was > 100 µM (inactive) each time.

Consider `CC(=O)NNc1nc(C)c(C(=O)/C=C/c2cccc([N+](=O)[O-])c2)s1`, for which the GI50 in [2] was > 100 µM (inactive); in assay [3], > 100 µM (inactive); in assay [4], > 100 µM (inactive); in assay [5], 19.5 µM (inactive); in assay [6], > 100 µM (inactive); in assay [7], > 100 µM (inactive). Also, the GI50 in assay [8], in assay [9], in assay [11], in assay [12], in assay [13] and in [14] was > 100 µM (inactive) each time. In addition, the GI50 in assay [15], in assay [16], in assay [18] and in assay [19] was > 100 µM (inactive) throughout.

Consider `CCSC(=O)N1c2ccc(OC)cc2C=CC1C#N` (centres undefined), for which the GI50 in [1] is 0.00292 µM (active); in assay [2], 0.00601 µM (active); in assay [3], < 0.01 µM (active); in [4] it was 0.00356 µM (active); in assay [5], 0.392 µM (active); in [6], < 0.01 µM (active). Further, the GI50 in [7] was 0.1 µM (active); in assay [8], < 0.01 µM (active); in assay [9] it was < 0.01 µM (active); in assay [10] it was 0.36 µM (active); in assay [11] it was 51.8 µM (inactive); in assay [12] it was 0.00782 µM (active). In addition, the GI50 in assay [13] is 0.00425 µM (active); in assay [14] it was 0.0176 µM (active); in [15], 0.00759 µM (active); in assay [16], 0.00565 µM (active); in [17], 228 µM (inactive); in [18], 0.00569 µM (active). In addition, the GI50 is 0.00449 µM (active) in assay [19] and 0.00168 µM (active) in assay [20].

For `COC(=O)c1c(-c2ccccc2)cc2c3cc(-c4ccccc4)c(C(=O)OC)n3c3ccccc3n12`, the GI50 in assay [2] was > 100 µM (inactive); in assay [3] it was 79.3 µM (inactive); in assay [4], > 100 µM (inactive); in assay [5] it was > 100 µM (inactive); in [6], > 100 µM (inactive); in [7] it was > 100 µM (inactive). Further, the GI50 in assay [8], in assay [9], in assay [11], in [12], in assay [13] and in assay [14] was > 100 µM (inactive) each time. In addition, the GI50 in assay [15], in assay [16], in [18] and in assay [19] was > 100 µM (inactive) each time.
